Measured values from ChEMBL document CHEMBL3714726, “Substituted quinoxaline carboxylic acids for the inhibition of PASK” (2014).

Legend:
[1] = molecular target: PAS domain-containing serine/threonine-protein kinase (Homo sapiens, UniProt Q96RG2); test: Inhibition of human recombinant PASK using Ulight-peptide substrate incubated for 2 hrs by TR-FRET assay
[2] = Half life in Sprague-Dawley rat at 1 mg/kg, iv after 0.083 to 24 hrs by LC-MS/MS method; format: ADME, organism-based; settings: in vivo

Chain of PAS domain-containing serine/threonine-protein kinase (Q96RG2 whole entry, the tested form may be a part): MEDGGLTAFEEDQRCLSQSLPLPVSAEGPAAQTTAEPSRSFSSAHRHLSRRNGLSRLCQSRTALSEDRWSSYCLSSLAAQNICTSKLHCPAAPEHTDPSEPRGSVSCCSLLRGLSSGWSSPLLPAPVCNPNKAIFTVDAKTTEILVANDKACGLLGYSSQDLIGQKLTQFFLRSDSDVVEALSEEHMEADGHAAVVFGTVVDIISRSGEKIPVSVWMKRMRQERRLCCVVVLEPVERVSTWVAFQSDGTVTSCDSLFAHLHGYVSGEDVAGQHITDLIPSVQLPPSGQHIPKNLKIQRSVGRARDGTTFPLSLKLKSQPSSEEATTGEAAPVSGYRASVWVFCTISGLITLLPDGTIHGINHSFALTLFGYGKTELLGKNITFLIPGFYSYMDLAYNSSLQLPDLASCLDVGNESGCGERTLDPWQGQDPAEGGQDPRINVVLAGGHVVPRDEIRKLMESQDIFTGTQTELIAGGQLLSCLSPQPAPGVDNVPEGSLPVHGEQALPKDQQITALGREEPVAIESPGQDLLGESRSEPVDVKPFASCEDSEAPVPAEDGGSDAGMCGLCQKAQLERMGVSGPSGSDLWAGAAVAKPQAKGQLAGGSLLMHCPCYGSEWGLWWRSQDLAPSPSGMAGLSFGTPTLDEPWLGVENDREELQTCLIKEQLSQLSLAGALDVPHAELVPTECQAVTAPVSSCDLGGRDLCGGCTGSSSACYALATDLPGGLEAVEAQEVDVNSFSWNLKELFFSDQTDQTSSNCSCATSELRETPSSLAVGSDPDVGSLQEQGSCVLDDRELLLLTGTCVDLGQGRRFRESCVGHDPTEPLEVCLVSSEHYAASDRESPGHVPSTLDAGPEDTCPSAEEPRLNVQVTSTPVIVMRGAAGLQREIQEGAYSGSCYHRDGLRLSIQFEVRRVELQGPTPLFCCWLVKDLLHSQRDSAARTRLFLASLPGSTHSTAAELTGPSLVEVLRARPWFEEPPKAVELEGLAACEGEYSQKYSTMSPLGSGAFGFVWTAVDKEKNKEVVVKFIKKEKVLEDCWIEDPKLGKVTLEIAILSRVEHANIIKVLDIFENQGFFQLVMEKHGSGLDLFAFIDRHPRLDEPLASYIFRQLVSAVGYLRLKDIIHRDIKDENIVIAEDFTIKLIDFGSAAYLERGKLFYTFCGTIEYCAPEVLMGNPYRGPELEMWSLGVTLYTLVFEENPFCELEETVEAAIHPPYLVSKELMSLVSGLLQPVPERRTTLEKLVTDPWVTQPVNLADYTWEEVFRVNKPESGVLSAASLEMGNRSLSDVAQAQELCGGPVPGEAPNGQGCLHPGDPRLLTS

IC50 [1] [µM]	half-life [2] [h]	Structure (SMILES)
≤ 10		CC(C)N(C)c1nc2cc(C(=O)O)ccc2nc1-c1nc2ccccc2o1
≤ 10		COc1ccc(-c2nc3ccc(C(=O)O)cc3nc2N(C)C(C)C)cn1
	7.72	C[C@H]1COCCN1c1nc2cc(C(=O)O)ccc2nc1-c1ccc(F)cc1
